Reference: ChEMBL document CHEMBL1759913, “Discovery of the first non-ATP competitive IGF-1R kinase inhibitors: advantages in comparison with competitive inhibitors” (Bioorg Med Chem Lett, 2011)
In brackets after ≈: the same amount, converted by molar mass.

How the values were obtained:
[1] = Metabolic stability in human microsomes assessed as compound remaining after 15 mins; type: ADME, Microsome; details: read-out: Stability
[2] = molecular target: Insulin receptor (Homo sapiens, UniProt P06213); test: Inhibition of insulin receptor kinase
Chain of Insulin receptor (P06213 28-758 limits assumed): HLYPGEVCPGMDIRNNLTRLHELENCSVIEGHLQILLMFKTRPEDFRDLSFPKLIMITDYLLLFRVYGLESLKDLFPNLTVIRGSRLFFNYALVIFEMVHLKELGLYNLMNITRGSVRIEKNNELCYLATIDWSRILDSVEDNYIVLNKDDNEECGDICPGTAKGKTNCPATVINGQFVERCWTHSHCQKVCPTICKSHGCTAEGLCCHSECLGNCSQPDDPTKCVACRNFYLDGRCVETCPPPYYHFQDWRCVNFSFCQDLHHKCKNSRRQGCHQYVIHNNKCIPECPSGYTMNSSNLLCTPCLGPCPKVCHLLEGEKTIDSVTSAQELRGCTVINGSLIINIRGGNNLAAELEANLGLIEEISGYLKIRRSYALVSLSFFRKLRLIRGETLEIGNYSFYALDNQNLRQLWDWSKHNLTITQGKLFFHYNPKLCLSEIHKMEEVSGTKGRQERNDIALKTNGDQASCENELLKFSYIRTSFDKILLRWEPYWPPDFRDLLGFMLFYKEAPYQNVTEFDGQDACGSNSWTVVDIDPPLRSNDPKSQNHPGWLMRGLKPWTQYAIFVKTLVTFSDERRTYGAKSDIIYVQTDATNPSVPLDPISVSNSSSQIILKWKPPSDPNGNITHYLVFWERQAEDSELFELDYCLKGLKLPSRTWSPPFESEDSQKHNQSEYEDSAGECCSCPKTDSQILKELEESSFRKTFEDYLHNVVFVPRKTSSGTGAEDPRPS
Chain of Insulin receptor (P06213 763-1382 limits assumed): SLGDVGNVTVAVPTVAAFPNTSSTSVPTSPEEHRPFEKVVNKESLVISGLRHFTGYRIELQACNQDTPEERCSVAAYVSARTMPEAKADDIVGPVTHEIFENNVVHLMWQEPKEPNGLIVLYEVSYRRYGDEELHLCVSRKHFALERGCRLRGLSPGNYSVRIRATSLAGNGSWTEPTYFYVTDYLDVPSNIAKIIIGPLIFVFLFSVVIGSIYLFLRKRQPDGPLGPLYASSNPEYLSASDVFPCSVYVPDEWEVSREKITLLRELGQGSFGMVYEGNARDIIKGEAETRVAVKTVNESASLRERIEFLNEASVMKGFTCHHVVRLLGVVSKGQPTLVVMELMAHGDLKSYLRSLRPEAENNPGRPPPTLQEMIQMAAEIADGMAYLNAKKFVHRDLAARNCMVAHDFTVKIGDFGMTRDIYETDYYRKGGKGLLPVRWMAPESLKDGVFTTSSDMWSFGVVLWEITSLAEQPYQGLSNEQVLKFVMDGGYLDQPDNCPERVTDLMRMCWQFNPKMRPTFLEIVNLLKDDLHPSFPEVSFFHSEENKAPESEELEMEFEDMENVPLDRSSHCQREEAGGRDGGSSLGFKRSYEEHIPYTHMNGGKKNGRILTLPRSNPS

[3] = molecular target: Cytochrome P450 3A4 (Homo sapiens, UniProt P08684); test: Inhibition of CYP3A4; type: ADME
Chain of Cytochrome P450 3A4 (P08684 whole entry): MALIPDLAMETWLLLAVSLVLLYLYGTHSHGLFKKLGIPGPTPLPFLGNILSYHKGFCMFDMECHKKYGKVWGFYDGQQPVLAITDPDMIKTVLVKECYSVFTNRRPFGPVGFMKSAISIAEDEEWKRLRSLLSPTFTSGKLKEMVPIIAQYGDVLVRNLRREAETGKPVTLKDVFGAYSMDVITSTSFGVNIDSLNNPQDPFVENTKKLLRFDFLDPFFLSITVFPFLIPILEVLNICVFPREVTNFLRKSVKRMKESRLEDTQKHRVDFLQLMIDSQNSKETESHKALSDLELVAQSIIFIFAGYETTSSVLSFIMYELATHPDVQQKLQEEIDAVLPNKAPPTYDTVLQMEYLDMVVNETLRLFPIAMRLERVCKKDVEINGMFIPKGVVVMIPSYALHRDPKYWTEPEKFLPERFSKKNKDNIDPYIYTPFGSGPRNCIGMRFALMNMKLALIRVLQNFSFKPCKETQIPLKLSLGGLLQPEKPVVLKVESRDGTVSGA

[4] = Solubility of compound; type: physicochemical
[5] = Oral bioavailability in BALB/c mouse at 10 mg/kg; type: ADME, organism-based; details: in vivo
[6] = molecular target: Cytochrome P450 2C19 (Homo sapiens, UniProt P33261); test: Inhibition of CYP2C19; type: ADME
Chain of Cytochrome P450 2C19 (P33261 whole entry): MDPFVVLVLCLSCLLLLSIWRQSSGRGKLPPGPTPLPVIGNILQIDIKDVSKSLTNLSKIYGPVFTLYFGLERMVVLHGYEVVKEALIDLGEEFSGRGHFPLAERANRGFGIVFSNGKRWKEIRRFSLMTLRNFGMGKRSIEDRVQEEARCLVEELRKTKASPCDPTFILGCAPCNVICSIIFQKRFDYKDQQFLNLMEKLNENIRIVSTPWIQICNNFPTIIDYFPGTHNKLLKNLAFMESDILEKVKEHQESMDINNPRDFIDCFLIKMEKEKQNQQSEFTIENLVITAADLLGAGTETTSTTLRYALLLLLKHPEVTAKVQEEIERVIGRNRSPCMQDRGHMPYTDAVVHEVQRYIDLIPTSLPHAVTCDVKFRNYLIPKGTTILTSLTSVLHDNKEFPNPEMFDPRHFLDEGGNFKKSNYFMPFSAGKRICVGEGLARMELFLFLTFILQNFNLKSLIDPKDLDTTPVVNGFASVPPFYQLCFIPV

[7] = AUC (0 to infinity) in BALB/c mouse at 10 mg/kg, po; type: ADME, organism-based; set-up: time infinity, dose 10 mg/kg, route oral; details: plasma
[8] = molecular target: Cytochrome P450 2C9 (Homo sapiens, UniProt P11712); test: Inhibition of CYP2C9; type: ADME
Chain of Cytochrome P450 2C9 (P11712 whole entry): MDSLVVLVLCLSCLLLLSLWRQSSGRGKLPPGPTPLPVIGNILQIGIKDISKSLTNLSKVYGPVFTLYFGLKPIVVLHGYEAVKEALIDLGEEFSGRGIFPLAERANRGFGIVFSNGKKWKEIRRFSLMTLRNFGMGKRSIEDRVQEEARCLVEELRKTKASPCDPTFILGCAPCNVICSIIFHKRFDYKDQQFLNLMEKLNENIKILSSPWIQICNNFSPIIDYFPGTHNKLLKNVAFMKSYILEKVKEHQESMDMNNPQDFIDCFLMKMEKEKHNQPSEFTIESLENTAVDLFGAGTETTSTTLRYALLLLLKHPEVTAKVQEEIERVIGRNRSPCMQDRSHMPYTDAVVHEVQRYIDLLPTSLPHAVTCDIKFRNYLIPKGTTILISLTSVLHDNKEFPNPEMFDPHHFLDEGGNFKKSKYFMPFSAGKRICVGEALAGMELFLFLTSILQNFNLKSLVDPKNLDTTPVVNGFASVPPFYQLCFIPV

[9] = Metabolic stability in mouse liver microsomes assessed as compound remaining after 15 mins
[10] = molecular target: T1, Cytochrome P450 1A2 (Homo sapiens, UniProt P05177); test: Inhibition of CYP1A2; type: ADME
T1 sequence (P05177 whole entry): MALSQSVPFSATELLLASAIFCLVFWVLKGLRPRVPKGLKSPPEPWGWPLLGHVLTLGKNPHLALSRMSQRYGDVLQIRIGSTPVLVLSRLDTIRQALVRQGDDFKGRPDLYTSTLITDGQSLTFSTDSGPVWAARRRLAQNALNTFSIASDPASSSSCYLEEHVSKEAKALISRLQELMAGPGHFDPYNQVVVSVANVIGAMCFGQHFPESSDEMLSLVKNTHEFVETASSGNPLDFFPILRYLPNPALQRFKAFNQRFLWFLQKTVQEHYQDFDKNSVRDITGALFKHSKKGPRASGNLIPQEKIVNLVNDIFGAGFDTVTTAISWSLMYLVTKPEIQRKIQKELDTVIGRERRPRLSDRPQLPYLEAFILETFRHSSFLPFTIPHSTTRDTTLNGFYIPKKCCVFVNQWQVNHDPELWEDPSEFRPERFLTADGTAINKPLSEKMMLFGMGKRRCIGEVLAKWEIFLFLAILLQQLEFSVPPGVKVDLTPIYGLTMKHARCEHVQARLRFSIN

[11] = Cmax in BALB/c mouse plasma at 10 mg/kg, po upto 24 hrs; type: ADME, organism-based; set-up: dose 10 mg/kg, route oral
[12] = molecular target: Cytochrome P450 2D6 (Homo sapiens, UniProt P10635); test: Inhibition of CYP2D6; type: ADME
Chain of Cytochrome P450 2D6 (P10635 whole entry): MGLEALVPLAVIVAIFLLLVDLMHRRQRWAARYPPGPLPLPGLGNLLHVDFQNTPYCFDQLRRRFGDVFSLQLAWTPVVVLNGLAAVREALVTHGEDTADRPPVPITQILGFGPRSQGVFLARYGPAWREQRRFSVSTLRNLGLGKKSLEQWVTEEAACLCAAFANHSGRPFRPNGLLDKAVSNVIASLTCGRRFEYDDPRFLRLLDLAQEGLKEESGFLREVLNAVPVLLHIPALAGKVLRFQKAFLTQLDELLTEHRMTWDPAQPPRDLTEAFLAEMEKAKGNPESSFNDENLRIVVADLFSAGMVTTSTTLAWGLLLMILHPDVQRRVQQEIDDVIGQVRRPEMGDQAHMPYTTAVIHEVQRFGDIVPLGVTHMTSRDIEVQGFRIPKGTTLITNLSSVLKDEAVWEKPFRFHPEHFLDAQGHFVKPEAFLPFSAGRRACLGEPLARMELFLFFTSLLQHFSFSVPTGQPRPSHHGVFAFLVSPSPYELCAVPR

[13] = system: MEF; test: Antiproliferative activity against mouse MEF cells transfected with human IGF1R assessed as inhibition of IGF1-induced proliferation after 72 hrs by [14C]thymidine incorporation assay; type: functional, cell-based
[14] = molecular target: T2, Insulin-like growth factor 1 receptor (Homo sapiens, UniProt P08069); test: Inhibition of autophosphosphorylation of human IGF1R expressed in IGF1-stimulated MCF7 cells by ELISA; type: cell-based
T2 sequence (P08069 31-736 limits assumed): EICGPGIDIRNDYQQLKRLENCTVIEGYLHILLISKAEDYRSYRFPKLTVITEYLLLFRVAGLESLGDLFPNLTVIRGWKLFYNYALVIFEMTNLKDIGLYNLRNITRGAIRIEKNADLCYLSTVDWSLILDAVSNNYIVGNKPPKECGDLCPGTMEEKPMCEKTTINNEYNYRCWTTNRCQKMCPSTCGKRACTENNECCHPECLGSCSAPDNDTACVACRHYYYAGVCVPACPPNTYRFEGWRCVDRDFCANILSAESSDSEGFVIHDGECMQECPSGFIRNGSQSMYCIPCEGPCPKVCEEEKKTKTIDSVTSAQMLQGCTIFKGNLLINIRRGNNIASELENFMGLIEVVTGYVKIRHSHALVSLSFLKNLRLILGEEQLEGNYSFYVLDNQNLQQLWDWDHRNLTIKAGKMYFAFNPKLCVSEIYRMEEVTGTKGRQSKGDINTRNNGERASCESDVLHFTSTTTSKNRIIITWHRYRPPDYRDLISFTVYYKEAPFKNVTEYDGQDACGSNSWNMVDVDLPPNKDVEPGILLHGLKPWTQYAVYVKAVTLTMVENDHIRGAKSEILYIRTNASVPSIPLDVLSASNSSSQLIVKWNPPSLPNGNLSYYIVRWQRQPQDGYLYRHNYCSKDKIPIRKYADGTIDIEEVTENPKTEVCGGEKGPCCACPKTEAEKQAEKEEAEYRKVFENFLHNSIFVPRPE
T2 sequence (P08069 741-1367 limits assumed): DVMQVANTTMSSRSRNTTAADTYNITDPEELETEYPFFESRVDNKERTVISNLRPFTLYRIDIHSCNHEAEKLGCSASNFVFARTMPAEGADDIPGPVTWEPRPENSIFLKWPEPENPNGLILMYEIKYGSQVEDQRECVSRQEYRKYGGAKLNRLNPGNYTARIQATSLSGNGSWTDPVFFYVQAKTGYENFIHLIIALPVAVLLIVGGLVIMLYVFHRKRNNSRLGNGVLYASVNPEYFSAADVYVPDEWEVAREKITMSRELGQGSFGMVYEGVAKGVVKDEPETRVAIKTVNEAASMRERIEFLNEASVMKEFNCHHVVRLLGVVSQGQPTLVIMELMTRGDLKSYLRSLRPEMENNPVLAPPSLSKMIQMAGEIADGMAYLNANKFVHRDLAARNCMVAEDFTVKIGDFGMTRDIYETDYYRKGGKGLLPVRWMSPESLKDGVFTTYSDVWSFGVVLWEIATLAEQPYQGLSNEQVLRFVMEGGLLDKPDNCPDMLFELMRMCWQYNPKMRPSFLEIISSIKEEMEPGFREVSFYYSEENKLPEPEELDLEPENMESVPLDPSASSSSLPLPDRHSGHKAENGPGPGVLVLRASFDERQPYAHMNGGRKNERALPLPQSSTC

[15] = molecular target: T2, Insulin-like growth factor 1 receptor; test: Inhibition of IGF-induced autophosphosphorylation of GST-tagged human IGF1R expressed in baculovirus-SF21 cell system preincubated for 30 mins by time resolved-fluorescent assay
[16] = molecular target: T2, Insulin-like growth factor 1 receptor; test: Inhibition of IGF-induced autophosphosphorylation of GST-tagged human IGF1R expressed in baculovirus-SF21 cell system preincubated for 5 mins by time resolved-fluorescent assay
[17] = molecular target: T2, Insulin-like growth factor 1 receptor; test: Inhibition of IGF-induced autophosphosphorylation of GST-tagged human IGF1R expressed in baculovirus-SF21 cell system preincubated for 60 mins by time resolved-fluorescent assay
[18] = molecular target: T2, Insulin-like growth factor 1 receptor; test: Inhibition of IGF-induced autophosphosphorylation of GST-tagged human IGF1R expressed in baculovirus-SF21 cell system preincubated for 10 mins by time resolved-fluorescent assay
[19] = molecular target: T2, Insulin-like growth factor 1 receptor; test: Inhibition of IGF-induced autophosphosphorylation of GST-tagged human IGF1R expressed in SF21 cells by time resolved-fluorescent assay
[20] = molecular target: T2, Insulin-like growth factor 1 receptor; test: Inhibition of autophosphosphorylation of human IGF1R expressed in IGF1-stimulated MCF7 cells preincubated for 60 mins by ELISA; type: cell-based
[21] = molecular target: T2, Insulin-like growth factor 1 receptor; test: Inhibition of IGF-induced autophosphosphorylation of GST-tagged human IGF1R expressed in SF21 cells after 10 mins by time resolved-fluorescent assay

SMILES: C[C@H]1C(=O)N(c2ccc(S(=O)(=O)C(F)(F)F)cc2)C(=O)N1Cc1ccnc2ccccc12
- remaining at 0.25 h [1]: 82%
- IC50 [2]: 300 nM
- IC50 [3]: > 15000 nM
- solubility [4]: 9.9 µg/mL (≈ 21.4 µM)
- bioavailability [5]: > 100%
- IC50 [6]: > 15000 nM
- AUC(0-inf) [7]: 13200 ng·h/mL
- IC50 [8]: 700 nM
- remaining at 0.25 h [9]: 83%
- IC50 [10]: > 15000 nM
- Cmax [11]: 1490 ng/mL
- IC50 [12]: > 15000 nM
- IC50 [13]: 300 nM

SMILES: COc1cc2c(-c3cc4cccnc4[nH]3)cn(C)c2cc1OC
- IC50 [14]: 145 nM
- IC50 [15]: 33 nM
- IC50 [16]: 34 nM
- IC50 [17]: 35 nM
- IC50 [18]: 34 nM
- IC50 [19]: 55 nM
- IC50 [20]: 180 nM
- IC50 [13]: 1600 nM

SMILES: C[C@H]1C(=O)N(c2ccc([S+]([O-])C(F)(F)F)cc2)C(=O)N1Cc1ccnc2ccccc12 (stereo not given in full)
- IC50 [19]: 2520 nM

SMILES: C[C@H]1C(=O)N(c2ccc(S(C)(=O)=O)cc2)C(=O)N1Cc1ccnc2ccccc12
- IC50 [19]: > 100000 nM

SMILES: O=C1CN(Cc2ccnc3ccccc23)C(=O)N1c1ccc(S(=O)(=O)C(F)(F)F)cc1
- IC50 [19]: 5400 nM

SMILES: CC1(C)C(=O)N(c2ccc(S(=O)(=O)C(F)(F)F)cc2)C(=O)N1Cc1ccnc2ccccc12
- IC50 [19]: 460 nM

SMILES: CC1(C)C(=O)N(c2ccc(SC(F)(F)F)cc2)C(=O)N1Cc1ccncc1
- IC50 [14]: 117 nM
- IC50 [19]: 264 nM
- IC50 [13]: 282 nM
- IC50 [21]: 264 nM

SMILES: CC1(C)C(=O)N(c2ccc(SC(F)(F)F)cc2)C(=O)N1Cc1ccnc(N2CCCCC2)c1
- IC50 [19]: > 10000 nM

SMILES: CC1(C)C(=O)N(c2ccc(SC(F)(F)F)cc2)C(=O)N1Cc1ccnc(N2CCOCC2)c1
- IC50 [19]: > 10000 nM

SMILES: CN1CCN(c2cc(CN3C(=O)N(c4ccc(SC(F)(F)F)cc4)C(=O)C3(C)C)ccn2)CC1
- IC50 [19]: > 10000 nM

SMILES: CC1(C)C(=O)N(c2ccc(SC(F)(F)F)cc2)C(=O)N1Cc1ccnc(N2CCNCC2)c1
- IC50 [19]: > 10000 nM

SMILES: CC1(C)C(=O)N(c2ccc(SC(F)(F)F)cc2)C(=O)N1Cc1ccnc(C#N)c1
- IC50 [19]: > 10000 nM

SMILES: CC1(C)C(=O)N(c2ccc(SC(F)(F)F)cc2)C(=O)N1Cc1ccnc(C(=O)O)c1
- IC50 [19]: > 10000 nM

SMILES: CC1(C)C(=O)N(c2ccc(SC(F)(F)F)cc2)C(=O)N1Cc1ccnc(NS(C)(=O)=O)c1
- IC50 [19]: 4710 nM

SMILES: CN(C)c1cc(CN2C(=O)N(c3ccc(SC(F)(F)F)cc3)C(=O)C2(C)C)ccn1
- IC50 [19]: 4500 nM

SMILES: CC1(C)C(=O)N(c2ccc(SC(F)(F)F)cc2)C(=O)N1Cc1ccnc(C(N)=O)c1
- IC50 [19]: 2950 nM

SMILES: CCOc1cc(CN2C(=O)N(c3ccc(SC(F)(F)F)cc3)C(=O)C2(C)C)ccn1
- IC50 [19]: 1850 nM

SMILES: CC1(C)C(=O)N(c2ccc(SC(F)(F)F)cc2)C(=O)N1Cc1ccnc(NC2CCCCC2)c1
- IC50 [19]: 1240 nM

SMILES: COc1ccc(CNc2cc(CN3C(=O)N(c4ccc(SC(F)(F)F)cc4)C(=O)C3(C)C)ccn2)cc1
- IC50 [19]: 1090 nM

SMILES: CC1(C)C(=O)N(c2ccc(SC(F)(F)F)cc2)C(=O)N1Cc1ccnc(Nc2ccccc2)c1
- IC50 [19]: 1060 nM

SMILES: CC1(C)C(=O)N(c2ccc(SC(F)(F)F)cc2)C(=O)N1Cc1ccnc(NCc2ccccc2)c1
- IC50 [19]: 1050 nM

SMILES: CC1(C)C(=O)N(c2ccc(SC(F)(F)F)cc2)C(=O)N1Cc1ccnc(Cl)c1
- IC50 [19]: 995 nM

SMILES: CC(C)(C)OC(=O)Nc1cc(CN2C(=O)N(c3ccc(SC(F)(F)F)cc3)C(=O)C2(C)C)ccn1
- IC50 [19]: 784 nM

SMILES: CNC(=O)c1cc(CN2C(=O)N(c3ccc(SC(F)(F)F)cc3)C(=O)C2(C)C)ccn1
- IC50 [19]: 703 nM

SMILES: CCc1cc(CN2C(=O)N(c3ccc(SC(F)(F)F)cc3)C(=O)C2(C)C)ccn1
- IC50 [19]: 574 nM

SMILES: CC(C)Nc1cc(CN2C(=O)N(c3ccc(SC(F)(F)F)cc3)C(=O)C2(C)C)ccn1
- IC50 [19]: 453 nM

SMILES: CNc1cc(CN2C(=O)N(c3ccc(SC(F)(F)F)cc3)C(=O)C2(C)C)ccn1
- IC50 [13]: 312 nM

SMILES: CCNc1cc(CN2C(=O)N(c3ccc(SC(F)(F)F)cc3)C(=O)C2(C)C)ccn1
- IC50 [14]: 47 nM
- IC50 [19]: 154 nM
- IC50 [13]: 104 nM
- IC50 [21]: 154 nM

SMILES: CC(=O)Nc1cc(CN2C(=O)N(c3ccc(SC(F)(F)F)cc3)C(=O)C2(C)C)ccn1
- IC50 [14]: 7 nM
- IC50 [15]: 28 nM
- IC50 [16]: 175 nM
- IC50 [17]: 7 nM
- IC50 [18]: 87 nM
- IC50 [19]: 98 nM
- IC50 [20]: 7 nM
- IC50 [13]: 8 nM
- IC50 [21]: 98 nM

SMILES: CC1(C)C(=O)N(c2ccc(SC(F)(F)F)cc2)C(=O)N1Cc1ccnc(N)c1
- IC50 [14]: 34 nM
- IC50 [19]: 92 nM
- IC50 [13]: 97 nM
- IC50 [21]: 92 nM

SMILES: C[C@H]1C(=O)N(c2ccc(S(=O)(=O)C(F)(F)F)cc2)C(=O)N1Cc1ccncc1
- IC50 [19]: 1600 nM

SMILES: C[C@H]1C(=O)N(c2ccc(S(=O)(=O)C(F)(F)F)cc2)C(=O)N1Cc1cccnc1
- IC50 [19]: 79700 nM

SMILES: C[C@H]1C(=O)N(c2ccc(S(=O)(=O)C(F)(F)F)cc2)C(=O)N1Cc1ccccn1
- IC50 [19]: > 100000 nM

SMILES: C[C@H]1C(=O)N(c2ccc(S(=O)(=O)C(F)(F)F)cc2)C(=O)N1Cc1cnc2ccccc2c1
- IC50 [19]: > 100000 nM

SMILES: C[C@H]1C(=O)N(c2ccc(S(=O)(=O)C(F)(F)F)cc2)C(=O)N1Cc1c[nH]cn1
- IC50 [19]: > 100000 nM

SMILES: C[C@H]1C(=O)N(c2ccc(S(=O)(=O)C(F)(F)F)cc2)C(=O)N1CC1CCNCC1
- IC50 [19]: > 100000 nM

SMILES: C[C@H]1C(=O)N(c2ccc(S(=O)(=O)C(F)(F)F)cc2)C(=O)N1Cc1ccccc1
- IC50 [19]: > 100000 nM

SMILES: C[C@H]1C(=O)N(c2ccc(S(=O)(=O)C(F)(F)F)cc2)C(=O)N1Cc1cc[n+]([O-])cc1
- IC50 [19]: > 100000 nM

SMILES: C[C@H]1C(=O)N(c2ccc(S(=O)(=O)C(F)(F)F)cc2)C(=O)N1Cc1cc[n+]([O-])c2ccccc12
- IC50 [19]: > 100000 nM
